Data as given in patent US20130060543A1, “SYSTEMS AND METHODS FOR REVERSE ENGINEERING MODELS OF BIOLOGICAL NETWORKS” (TRUSTEES OF BOSTON UNIVERSITY, priority 2002, published 2013).

Test system: SOS test network genes
Test: RNA expression changes of SOS test network genes after MMC perturbation (real-time qPCR)
Assay type: cell-based, E. coli

CO[C@@]12[C@H](COC(N)=O)C3=C(C(=O)C(C)=C(N)C3=O)N1C[C@@H]1N[C@@H]12 [MMC, Mitomycin C]
Transcriptional response of all genes in the test network (0.75 μg/ml MMC vs 0.5 μg/ml MMC baseline): statistically significant upregulation | Relative RNA expression change xi=[RNAi]pert/[RNAi]cont−1, dinI (0.75 μg/ml MMC vs control cells at 0.5 μg/ml MMC, gene dinI): 0.334 | Relative RNA expression change xi=[RNAi]pert/[RNAi]cont−1, lexA (0.75 μg/ml MMC vs control cells at 0.5 μg/ml MMC, gene lexA): 0.321 | Relative RNA expression change xi=[RNAi]pert/[RNAi]cont−1, recA (0.75 μg/ml MMC vs control cells at 0.5 μg/ml MMC, gene recA): 0.496 | Relative RNA expression change xi=[RNAi]pert/[RNAi]cont−1, recF (0.75 μg/ml MMC vs control cells at 0.5 μg/ml MMC, gene recF): 0.523 | Relative RNA expression change xi=[RNAi]pert/[RNAi]cont−1, rpoD (0.75 μg/ml MMC vs control cells at 0.5 μg/ml MMC, gene rpoD): 0.327 | Relative RNA expression change xi=[RNAi]pert/[RNAi]cont−1, rpoH (0.75 μg/ml MMC vs control cells at 0.5 μg/ml MMC, gene rpoH): 0.786 | Relative RNA expression change xi=[RNAi]pert/[RNAi]cont−1, rpoS (0.75 μg/ml MMC vs control cells at 0.5 μg/ml MMC, gene rpoS): 0.672 | Relative RNA expression change xi=[RNAi]pert/[RNAi]cont−1, ssb (0.75 μg/ml MMC vs control cells at 0.5 μg/ml MMC, gene ssb): 0.251 | Relative RNA expression change xi=[RNAi]pert/[RNAi]cont−1, umuDC (0.75 μg/ml MMC vs control cells at 0.5 μg/ml MMC, gene umuDC): 0.834
